# Data from PubChem BioAssay (NCI).
#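 A five-concentration, 48-hour dose response in 96-well plates underlies each endpoint, interpolated linearly between surrounding concentrations. TGI is the concentration that stops growth completely.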
# What was measured:
# Assay in all cases: NCI tumour cell line growth inhibition, 48 h
# 786-0 renal = system: 786-0 renal
# A498 renal = system: A498 renal
# ACHN renal = system: ACHN renal
# BT-549 breast = system: BT-549 breast
# CAKI-1 renal = system: CAKI-1 renal
# CCRF-CEM leukemia = system: CCRF-CEM leukemia
# COLO 205 colon = system: COLO 205 colon
# DU-145 prostate = system: DU-145 prostate
# EKVX NSCLC = system: EKVX NSCLC
# HCT-116 colon = system: HCT-116 colon
# HCT-15 colon = system: HCT-15 colon
# HL-60(TB) leukemia = system: HL-60(TB) leukemia
# HS 578T breast = system: HS 578T breast
# HT29 colon = system: HT29 colon
# IGROV1 ovarian = system: IGROV1 ovarian
# K-562 leukemia = system: K-562 leukemia
# KM12 colon = system: KM12 colon
# LOX IMVI melanoma = system: LOX IMVI melanoma
# M14 melanoma = system: M14 melanoma
# MALME-3M melanoma = system: MALME-3M melanoma
# MCF7 breast = system: MCF7 breast
# MDA-MB-231 breast = system: MDA-MB-231 breast
# MDA-MB-435 = system: MDA-MB-435
# MDA-N = system: MDA-N
# MOLT-4 leukemia = system: MOLT-4 leukemia
# NCI-H226 lung = system: NCI-H226 lung
# NCI-H23 lung = system: NCI-H23 lung
# NCI/ADR-RES ovarian = system: NCI/ADR-RES ovarian
# OVCAR-3 ovarian = system: OVCAR-3 ovarian
# OVCAR-5 ovarian = system: OVCAR-5 ovarian
# OVCAR-8 ovarian = system: OVCAR-8 ovarian
# PC-3 prostate = system: PC-3 prostate
# RPMI-8226 leukemia = system: RPMI-8226 leukemia
# RXF 393 renal = system: RXF 393 renal
# SF-268 CNS = system: SF-268 CNS
# SF-539 CNS = system: SF-539 CNS
# SK-MEL-2 melanoma = system: SK-MEL-2 melanoma
# SK-MEL-28 melanoma = system: SK-MEL-28 melanoma
# SK-MEL-5 melanoma = system: SK-MEL-5 melanoma
# SK-OV-3 ovarian = system: SK-OV-3 ovarian
# SN12C renal = system: SN12C renal
# SNB-19 CNS = system: SNB-19 CNS
# SNB-75 CNS = system: SNB-75 CNS
# SW-620 colon = system: SW-620 colon
# T-47D breast = system: T-47D breast
# TK-10 renal = system: TK-10 renal
# U251 CNS = system: U251 CNS
# UACC-257 melanoma = system: UACC-257 melanoma
# UACC-62 melanoma = system: UACC-62 melanoma
# UO-31 renal = system: UO-31 renal
# A549 NSCLC = system: A549 NSCLC
# HCC-2998 colon = system: HCC-2998 colon
# HOP-62 NSCLC = system: HOP-62 NSCLC
# HOP-92 NSCLC = system: HOP-92 NSCLC
# NCI-H460 lung = system: NCI-H460 lung
# OVCAR-4 ovarian = system: OVCAR-4 ovarian
# SF-295 CNS = system: SF-295 CNS
# SR leukemia = system: SR leukemia
compound,measurement,setting,value
O=C(c1ccco1)N(C(=O)N1CCC(c2ccccc2)CC1)c1ccccc1,TGI,786-0 renal,> 100 µM
same,TGI,A498 renal,> 100 µM
same,TGI,ACHN renal,> 100 µM
same,TGI,BT-549 breast,> 100 µM
same,TGI,CAKI-1 renal,> 100 µM
same,TGI,CCRF-CEM leukemia,> 100 µM
same,TGI,COLO 205 colon,> 100 µM
same,TGI,DU-145 prostate,> 100 µM
same,TGI,EKVX NSCLC,> 100 µM
same,TGI,HCT-116 colon,> 100 µM
same,TGI,HCT-15 colon,> 100 µM
same,TGI,HL-60(TB) leukemia,65.9 µM
same,TGI,HS 578T breast,> 100 µM
same,TGI,HT29 colon,> 100 µM
same,TGI,IGROV1 ovarian,> 100 µM
same,TGI,K-562 leukemia,> 100 µM
same,TGI,KM12 colon,85 µM
same,TGI,LOX IMVI melanoma,> 100 µM
same,TGI,M14 melanoma,> 100 µM
same,TGI,MALME-3M melanoma,> 100 µM
same,TGI,MCF7 breast,> 100 µM
same,TGI,MDA-MB-231 breast,> 100 µM
same,TGI,MDA-MB-435,> 100 µM
same,TGI,MDA-N,> 100 µM
same,TGI,MOLT-4 leukemia,54.2 µM
same,TGI,NCI-H226 lung,> 100 µM
same,TGI,NCI-H23 lung,> 100 µM
same,TGI,NCI/ADR-RES ovarian,91 µM
same,TGI,OVCAR-3 ovarian,> 100 µM
same,TGI,OVCAR-5 ovarian,> 100 µM
same,TGI,OVCAR-8 ovarian,> 100 µM
same,TGI,PC-3 prostate,> 100 µM
same,TGI,RPMI-8226 leukemia,60 µM
same,TGI,RXF 393 renal,90.9 µM
same,TGI,SF-268 CNS,> 100 µM
same,TGI,SF-539 CNS,> 100 µM
same,TGI,SK-MEL-2 melanoma,> 100 µM
same,TGI,SK-MEL-28 melanoma,> 100 µM
same,TGI,SK-MEL-5 melanoma,51.5 µM
same,TGI,SK-OV-3 ovarian,> 100 µM
same,TGI,SN12C renal,> 100 µM
same,TGI,SNB-19 CNS,> 100 µM
same,TGI,SNB-75 CNS,46.2 µM
same,TGI,SW-620 colon,> 100 µM
same,TGI,T-47D breast,64.2 µM
same,TGI,TK-10 renal,> 100 µM
same,TGI,U251 CNS,> 100 µM
same,TGI,UACC-257 melanoma,> 100 µM
same,TGI,UACC-62 melanoma,> 100 µM
same,TGI,UO-31 renal,83.8 µM
CCOC(=O)c1csc(NC(=O)CCN2CCN(C)CC2)n1,TGI,A498 renal,> 100 µM
same,TGI,A549 NSCLC,> 100 µM
same,TGI,ACHN renal,> 100 µM
same,TGI,CAKI-1 renal,> 100 µM
same,TGI,CCRF-CEM leukemia,> 100 µM
same,TGI,COLO 205 colon,> 100 µM
same,TGI,DU-145 prostate,> 100 µM
same,TGI,HCC-2998 colon,> 100 µM
same,TGI,HCT-15 colon,> 100 µM
same,TGI,HL-60(TB) leukemia,> 100 µM
same,TGI,HOP-62 NSCLC,> 100 µM
same,TGI,HOP-92 NSCLC,> 100 µM
same,TGI,HS 578T breast,> 100 µM
same,TGI,HT29 colon,> 100 µM
same,TGI,K-562 leukemia,> 100 µM
same,TGI,KM12 colon,> 100 µM
same,TGI,LOX IMVI melanoma,> 100 µM
same,TGI,M14 melanoma,> 100 µM
same,TGI,MCF7 breast,> 100 µM
same,TGI,MDA-MB-231 breast,> 100 µM
same,TGI,MDA-MB-435,> 100 µM
same,TGI,MDA-N,> 100 µM
same,TGI,MOLT-4 leukemia,> 100 µM
same,TGI,NCI-H226 lung,> 100 µM
same,TGI,NCI-H23 lung,> 100 µM
same,TGI,NCI-H460 lung,> 100 µM
same,TGI,NCI/ADR-RES ovarian,> 100 µM
same,TGI,OVCAR-3 ovarian,> 100 µM
same,TGI,OVCAR-4 ovarian,> 100 µM
same,TGI,OVCAR-5 ovarian,> 100 µM
same,TGI,OVCAR-8 ovarian,> 100 µM
same,TGI,PC-3 prostate,> 100 µM
same,TGI,RPMI-8226 leukemia,> 100 µM
same,TGI,RXF 393 renal,> 100 µM
same,TGI,SF-295 CNS,> 100 µM
same,TGI,SF-539 CNS,> 100 µM
same,TGI,SK-MEL-2 melanoma,> 100 µM
same,TGI,SK-MEL-28 melanoma,> 100 µM
same,TGI,SK-MEL-5 melanoma,> 100 µM
same,TGI,SK-OV-3 ovarian,> 100 µM
same,TGI,SNB-19 CNS,> 100 µM
same,TGI,SNB-75 CNS,> 100 µM
same,TGI,SR leukemia,> 100 µM
same,TGI,SW-620 colon,> 100 µM
same,TGI,T-47D breast,> 100 µM
same,TGI,TK-10 renal,> 100 µM
same,TGI,U251 CNS,> 100 µM
same,TGI,UACC-257 melanoma,> 100 µM
same,TGI,UACC-62 melanoma,> 100 µM
same,TGI,UO-31 renal,> 100 µM
